Active and inactive are the calls of the source.
Columns and labels:
Assay type in all cases: functional, organism-based
Mus musculus [1] = test: Antiobesity activity in lean normal BALB/c mouse assessed as change in average daily weight at equimolar dose of 0.5 mmol/kg galegine administered daily through diet for 7 days
Mus musculus [2] = test: Hypoglycemic activity in lean normal BALB/c mouse assessed as blood glucose level at equimolar dose of 0.5 mmol/kg galegine administered daily through diet for 7 days
Mus musculus [3] = test: Antiobesity activity in lean normal BALB/c mouse assessed as change in average daily food intake at equimolar dose of 0.5 mmol/kg galegine administered daily through diet for 7 days
Mus musculus [4] = test: Antidiabetic activity in lean normal BALB/c mouse assessed as effect on blood lactate level at equimolar dose of 0.5 mmol/kg galegine administered daily through diet for 7 days

Measured: Activity

COc1cccc(CNC(=N)N)c1OC
inactive: all assays above

CSCCCNC(=N)N
inactive: all assays above

COc1ccc(CNC(=N)N)c(OC)c1
inactive: all assays above

N=C(N)N1CCc2ccccc2C1
inactive: all assays above

N=C(N)NCc1ccccn1
inactive: all assays above

COc1cccc(CNC(=N)N)c1
inactive: all assays above

CCOc1ccc(CNC(=N)N)cc1
inactive: all assays above

CC(C)CCNC(=N)N
inactive: all assays above

COc1ccc(CNC(=N)N)cc1
inactive: all assays above

N=C(N)NCC1CCCCC1
inactive: all assays above

C=CCNC(=N)N
inactive: all assays above

N=C(N)NCc1c(F)cccc1Cl
inactive: all assays above

N=C(N)NCc1ccc(O)cc1
inactive: all assays above

N=C(N)NCc1ccccc1C(F)(F)F
inactive: all assays above

N=C(N)NCC1CCCO1 (stereo not given)
inactive: all assays above

COc1ccc(OC)c(CNC(=N)N)c1
inactive: all assays above

CSCCNC(=N)N
inactive: all assays above

N=C(N)NCCCCNC(=N)N
inactive: all assays above

CC(C)=CCNC1=NCCN1
inactive: all assays above

CC(C)=CCNc1ncccn1
inactive: all assays above

Cc1ccc(CNC(=N)N)cc1
inactive: all assays above

COc1ccc(CNC(=N)N)cc1OC
inactive: all assays above

COc1ccc(CNC(=N)N)c(OC)c1OC
inactive: all assays above

CC(C)=CCNC(=N)NC#N
inactive: all assays above

Cc1ccccc1CNC(=N)N
inactive: all assays above

Reference: ChEMBL document CHEMBL1136921, “Benzylguanidines and other galegine analogues inducing weight loss in mice” (J Med Chem, 2009)
